SMILES strings stand for the structures.

This assay addresses T1, Human MTHFD2 (Homo sapiens, UniProt P13995).
T1 construct: residues 36-350 in Uniport ID P13995; His6 (N); made in house; host or cells: E. coli
T1 sequence (P13995 36-350): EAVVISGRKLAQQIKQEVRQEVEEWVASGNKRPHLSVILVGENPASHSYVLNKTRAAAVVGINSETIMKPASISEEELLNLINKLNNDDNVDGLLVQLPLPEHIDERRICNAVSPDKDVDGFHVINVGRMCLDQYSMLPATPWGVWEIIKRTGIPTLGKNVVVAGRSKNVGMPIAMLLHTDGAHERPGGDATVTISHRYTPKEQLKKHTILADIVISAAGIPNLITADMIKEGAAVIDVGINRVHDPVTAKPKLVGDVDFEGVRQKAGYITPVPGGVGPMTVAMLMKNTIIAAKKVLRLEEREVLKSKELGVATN
Briefly: MTHFD2 Activity Assay (dehydrogenase activity, diaphorase/resazurin coupled fluorescence). The class given is biochemical. The note with it: inhibitory activity (IC50 and/or binding constant); 0.2 nM MTHFD2, 11 concentrations. Put shortly:
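His6-tagged MTHFD2 (res. 36-350), E. coli-expressed, at 0.2 nM preincubated with compound 15 min in Hepes pH 8.0/MgCl2/KH2PO4 buffer; 70 μM CH2-THF, 1 mM NAD+ added with resazurin/diaphorase, 30 min, EDTA stop. Resorufin fluorescence (ex 525/em 598); IC50 from 11-point 4-parameter fit.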
(The colour change of resazurin is a common sign of viable cells or microbes.)
One may read the IC50 as the concentration at which inhibition is half-maximal. Lower therefore signals inhibition by little substance. Molecule `Cn1c(N[C@H]2CC[C@@H](CO)C2)nc2c1c(=O)n(Cc1cc3ccccc3[nH]1)c(=O)n2C` (stereo in doubt) [Example 317, 1-((1H-indol-2-yl)methyl)-8-((1S,3R)-3-(hydroxymethyl)cyclopentylamino)-3,7-dimethyl-1H-purine-2,6(3H,7H)-dione] had an IC50 of 0.01 to 1 µM.

For `Cn1c(C2CCCNC2)nc2c1c(=O)n(Cc1cc3c(Cl)cccc3[nH]1)c(=O)n2C` (centres unmarked) [Example 391, 1-[(4-chloro-1H-indol-2-yl)methyl]-3,7-dimethyl-8-(3-piperidyl)purine-2,6-dione], the IC50 was 0.01 to 1 µM.

`Cn1c(NCCO)nc2c1c(=O)n(Cc1ccc(Cl)c(Cl)c1)c(=O)n2C` [Example 1, 1-(3,4-dichlorobenzyl)-8-((2-hydroxyethyl)amino)-3,7-dimethyl-1H-purine-2,6(3H,7H)-dione] gave an IC50 of 1 to 5 µM.

Turning to `Cn1c(Nc2ccc(CN)nc2)nc2c1c(=O)n(Cc1cc3c(Cl)cccc3[nH]1)c(=O)n2C` [Example 429, 8-(6-(aminomethyl)pyridin-3-ylamino)-1-((4-chloro-1H-indol-2-yl)methyl)-3,7-dimethyl-1H-purine-2,6(3H,7H)-dione], the half-inhibitory concentration (IC50) is 0.01 to 1 µM.

In the case of `Cn1c(Nc2ccncc2)nc2c1c(=O)n(Cc1cc3cc(Cl)ccc3[nH]1)c(=O)n2C` [Example 176, 1-((5-chloro-1H-indol-2-yl)methyl)-3,7-dimethyl-8-(pyridin-4-ylamino)-1H-purine-2,6(3H,7H)-dione], the IC50 lay within 0.01 to 1 µM.

`C[C@@H](CCO)Nc1nc2c(c(=O)n(Cc3ccc(Cl)cc3)c(=O)n2C)n1C` [Example 31, 1-[(4-chlorophenyl)methyl]-8-{[(2S)-4-hydroxybutan-2-yl]amino}-3,7-dimethyl-2,3,6,7-tetrahydro-1H-purine-2,6-dione] yielded an IC50 of 1 to 5 µM.

`Cn1c(Nc2cccc(CCC(=O)O)c2)nc2c1c(=O)n(Cc1ccc(Cl)c(Cl)c1)c(=O)n2C` [Example 291, 3-(3-(1-(3,4-dichlorobenzyl)-3,7-dimethyl-2,6-dioxo-2,3,6,7-tetrahydro-1H-purin-8-ylamino)phenyl)propanoic acid] gave an IC50 of 0.01 to 1 µM.

With `Cn1c(N[C@@H]2CCCOC2)nc2c1c(=O)n(Cc1ccc(Cl)c(Cl)c1)c(=O)n2C` [Example 47, 1-[(3,4-dichlorophenyl)methyl]-3,7-dimethyl-8-{[(3R)-oxan-3-yl]amino}-2,3,6,7-tetrahydro-1H-purine-2,6-dione], the IC50 was 0.01 to 1 µM.

In turn, `Cn1c(NCCC(=O)O)nc2c1c(=O)n(Cc1ccc(Cl)c(Cl)c1)c(=O)n2C` [Example 37, 3-({1-[(3,4-dichlorophenyl)methyl]-3,7-dimethyl-2,6-dioxo-2,3,6,7-tetrahydro-1H-purin-8-yl}amino)propanoic acid] yielded an IC50 of 0.01 to 1 µM.

For `Cn1c(Nc2ccnc([C@H]3C[C@@H]3CO)c2)nc2c1c(=O)n(Cc1ccc(Cl)c(Cl)c1)c(=O)n2C` (racemic) [Example 284, (±)-trans-1-(3,4-dichlorobenzyl)-8-((2-(2-(hydroxymethyl)cyclopropyl)pyridin-4-yl)amino)-3,7-dimethyl-1H-purine-2,6(3H,7H)-dione], the IC50 lay within 0.01 to 1 µM.

`Cn1c(Cn2c(=O)c3c(nc(CCN4CCOCC4)n3C)n(C)c2=O)cc2cc(Cl)ccc21` [Example 225, 1-((5-chloro-1-methyl-1H-indol-2-yl)methyl)-3,7-dimethyl-8-(2-morpholinoethyl)-1H-purine-2,6(3H,7H)-dione]: the IC50 was 0.01 to 1 µM.

Regarding `Cn1c(NC[C@H](O)CO)nc2c1c(=O)n(Cc1ccc(Cl)c(Cl)c1)c(=O)n2C` [Example 14, 1-[(3,4-dichlorophenyl)methyl]-8-{[(2S)-2,3-dihydroxypropyl]amino}-3,7-dimethyl-2,3,6,7-tetrahydro-1H-purine-2,6-dione], the half-inhibitory concentration (IC50) lay within 0.01 to 1 µM.

`Cn1c(NCc2cn[nH]c2)nc2c1c(=O)n(Cc1ccc(Cl)c(Cl)c1)c(=O)n2C` [Example 42, 1-[(3,4-dichlorophenyl)methyl]-3,7-dimethyl-8-[(1H-pyrazol-4-ylmethyl)amino]-2,3,6,7-tetrahydro-1H-purine-2,6-dione] gave an IC50 of 1 to 5 µM.

`Cn1c(NCCCO)nc2c1c(=O)n(Cc1ccc(Cl)c(CO)c1)c(=O)n2C` [Example 166, 1-{[4-chloro-3-(hydroxymethyl)phenyl]methyl}-8-[(3-hydroxypropyl)amino]-3,7-dimethyl-2,3,6,7-tetrahydro-1H-purine-2,6-dione]: the IC50 is > 10 µM.

The molecule `COCCNc1nc2c(c(=O)n(Cc3ccc(Cl)c(Cl)c3)c(=O)n2C)n1C` [Example 273, 1-[(3,4-dichlorophenyl)methyl]-8-(2-methoxyethylamino)-3,7-dimethyl-purine-2,6-dione] gave a concentration for half-maximal inhibition (IC50) of 1 to 5 µM.

Molecule `Cn1c(N[C@H]2CC[C@@H](O)C2)nc2c1c(=O)n(Cc1ccc(C(F)(F)F)cc1)c(=O)n2C` (racemic) [Example 171, (±)-8-((cis)-3-hydroxycyclopentylamino)-3,7-dimethyl-1-(4-(trifluoromethyl)benzyl)-1H-purine-2,6(3H,7H)-dione] displayed an IC50 of 1 to 5 µM.

Molecule `Cn1c(Nc2ccc(-c3ccccc3)cn2)nc2c1c(=O)n(Cc1cc3c(Cl)cccc3[nH]1)c(=O)n2C` [Example 400, 1-[(4-chloro-1H-indol-2-yl)methyl]-3,7-dimethyl-8-[(5-phenyl-2-pyridyl)amino]purine-2,6-dione] had an IC50 of 1 to 5 µM.

As to `Cn1c(Nc2ccnc([C@H]3C[C@@H]3C(=O)O)c2)nc2c1c(=O)n(Cc1ccc(Cl)c(Cl)c1)c(=O)n2C` (racemic) [Example 279, (±)-trans-2-(4-((1-(3,4-dichlorobenzyl)-3,7-dimethyl-2,6-dioxo-2,3,6,7-tetrahydro-1H-purin-8-yl)amino)pyridin-2-yl)cyclopropanecarboxylic acid], the IC50 lay in the range of 0.01 to 1 µM.

On to `Cn1c(CCN2CCOCC2)nc2c1c(=O)n(Cc1cc3ccccc3[nH]1)c(=O)n2C` [Example 226, 1-((1H-indol-2-yl)methyl)-3,7-dimethyl-8-(2-morpholinoethyl)-1H-purine-2,6(3H,7H)-dione], for which the IC50 fell in the range of 0.01 to 1 µM.

The molecule `Cn1c(NC2CCNC2=O)nc2c1c(=O)n(Cc1ccc(Cl)c(Cl)c1)c(=O)n2C` (centres unmarked) [Example 86, 1-[(3,4-dichlorophenyl)methyl]-3,7-dimethyl-8-[(2-oxopyrrolidin-3-yl)amino]-2,3,6,7-tetrahydro-1H-purine-2,6-dione] gave an IC50 of 0.01 to 1 µM.

`Cn1c(=O)n(Cc2ccc(Cl)c(Cl)c2)c(=O)c2c1nc(NC1CCCC(C(=O)O)C1)n2CCC(=O)O` (centres unmarked) [Example 341, 3-(7-(2-carboxyethyl)-1-(3,4-dichlorobenzyl)-3-methyl-2,6-dioxo-2,3,6,7-tetrahydro-1H-purin-8-ylamino)cyclohexanecarboxylic acid] had an IC50 of 5 to 10 µM.

Consider `Cn1c(CO)nc2c1c(=O)n(Cc1ccc(Cl)c(Cl)c1)c(=O)n2C` [Example 100, 1-(3,4-dichlorobenzyl)-8-(hydroxymethyl)-3,7-dimethyl-1H-purine-2,6(3H,7H)-dione], for which the IC50 is 1 to 5 µM.

Take `Cn1c(Nc2cccc([C@H]3C[C@H]3C(=O)O)n2)nc2c1c(=O)n(Cc1ccc(Cl)c(Cl)c1)c(=O)n2C` (racemic) [Example 357, (±)-cis-2-(6-((1-(3,4-dichlorobenzyl)-3,7-dimethyl-2,6-dioxo-2,3,6,7-tetrahydro-1H-purin-8-yl)amino)pyridin-2-yl)cyclopropanecarboxylic acid]: the IC50 lay in the range of 0.01 to 1 µM.

Turning to `Cn1c([C@H](N)Cc2ccncc2)nc2c1c(=O)n(Cc1cc3c(Cl)cccc3[nH]1)c(=O)n2C` [Example 447, (R)-8-(1-amino-2-(pyridin-4-yl)ethyl)-1-((4-chloro-1H-indol-2-yl)methyl)-3,7-dimethyl-1H-purine-2,6(3H,7H)-dione], the IC50 was 0.01 to 1 µM.

On to `Cn1c(N[C@@H]2CCC[C@@H](O)C2)nc2c1c(=O)n(Cc1ccc(Cl)c(Cl)c1)c(=O)n2C` (racemic) [Example 172, (±)-1-(3,4-dichlorobenzyl)-8-((trans)-3-hydroxycyclohexylamino)-3,7-dimethyl-1H-purine-2,6(3H,7H)-dione], for which the IC50 fell in the range of 0.01 to 1 µM.

In the case of `Cn1c(Nc2ncc[nH]2)nc2c1c(=O)n(Cc1cc3c(Cl)cccc3[nH]1)c(=O)n2C` [Example 356, 1-[(4-chloro-1H-indol-2-yl)methyl]-8-(1H-imidazol-2-ylamino)-3,7-dimethyl-purine-2,6-dione], the IC50 was 0.01 to 1 µM.

In turn, `Cn1c(N[C@@H]2CCC[C@@H]2O)nc2c1c(=O)n(Cc1cc3c(Cl)cccc3[nH]1)c(=O)n2C` [Example 359] showed an IC50 of 0.01 to 1 µM.

`Cn1c(NC2CCCC(C(=O)O)C2)nc2c1c(=O)n(Cc1ccc(C(F)(F)F)cc1)c(=O)n2C` (racemic) [Example 115, (±)-3-(3,7-dimethyl-2,6-dioxo-1-(4-(trifluoromethyl)benzyl)-2,3,6,7-tetrahydro-1H-purin-8-ylamino)cyclohexanecarboxylic acid] displayed an IC50 of 1 to 5 µM.

Molecule `C[C@@H](N)c1nc2c(c(=O)n(Cc3cc4c(Cl)cccc4[nH]3)c(=O)n2C)n1C` (single isomer, unassigned) [Example 436, (R)-8-(1-aminoethyl)-14(4-chloro-1H-indol-2-yl)methyl)-3,7-dimethyl-1H-purine-2,6(3H,7H)-dione or (S)-8-(1-aminoethyl)-1-((4-chloro-1H-indol-2-yl)methyl)-3,7-dimethyl-1H-purine-2,6(3H,7H)-dione] showed an IC50 of 0.01 to 1 µM.

The record behind these values is patent US12187728B2 (Raze Therapeutics, Inc., priority 2015, dated 2025).
